# From patent US8153795B2, “Substituted 1-oxa-3,8-diazaspiro[4.5]-decan-2-one-compounds and the use thereof for producing drugs” (Gruenenthal GmbH, priority 2005, dated 2012)
# Tests used:
# 5-HT transporter = target: T1, 5-HT transporter (Rattus norvegicus, UniProt P31652); test: 5-HT uptake inhibition in rat brain synaptosomes (medulla and pons), [3H]-5-HT; format: biochemical
# T1 construct: from tissue; host or cells: rat brain synaptosomes (P2 fraction) from medulla and pons
# How it was run: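 Freshly isolated P2 synaptosomes taken from rat hypothalamus (NA) or medulla/pons (5-HT) were incubated at room temperature under O2 with [3H]-NA for 7.5 min or [3H]-5-HT for 5 min. Uptake was measured as filter-retained radioactivity by scintillation counting.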
# NA transporter = target: T2, NA transporter (Rattus norvegicus, UniProt Q63380); test: noradrenalin uptake inhibition in rat brain synaptosomes (hypothalamus), [3H]-NA; format: biochemical
# T2 construct: from tissue; host or cells: rat brain synaptosomes (P2 fraction) from hypothalamus
# From the text: a) Method for Determining Noradrenalin and 5-HT Uptake Inhibition:
# Synaptosomes from rat brain regions are freshly isolated for in vitro studies, as described in the publication “The isolation of nerve endings from brain” by E. G. Gray and V. P. Whittaker, J. Anatomy 96, pages 79-88, 1962. The corresponding literature description is hereby introduced as a reference and is deemed to be part of the disclosure.
# The tissue (hypothalamus for the determination of noradrenalin uptake inhibition and medulla and pons for the determination of 5-HT uptake inhibition) is homogenised in ice-cooled 0.32 M sucrose (100 mg of tissue/1 mL) in a glass homogeniser with Teflon pestle using five complete up and down strokes at 840 revolutions/minute.
# The homogenate is centrifuged at 4° C. for 10 minutes at 1000 g. After subsequent centrifugation at 17000 g for 55 minutes, the synaptosomes (P2 fraction) are obtained, which are resuspended in 0.32 M […] (0.5 mL/100 mg of original weight).
# The particular uptake is measured in a 96-well microtitre plate. The volume is 250 μl and the incubation proceeds at room temperature (approx. 20-25° C.) under an O2 atmosphere.
# The incubation time is 7.5 minutes for [^3H]-NA and 5 minutes for [^3H]-5-HT. The 96 samples are then filtered through a Unifilter GF/B® microtitre plate (Packard) and washed with 200 mL of incubated buffer using a “Brabdel MPXRI-96T Cell-Harvester”. The Unifilter GF/B plate is dried for 1 hour at 55° C. The plate is then sealed with a Back Seal® (Packard) and 35 μl of scintillation fluid are added per well (Ultima Gold®, Packard). After sealing with a top Seal® (Packard) and establishing an equilibrium (around 5 hours), radioactivity is determined in a “Trilux 1450 Microbeta” (Wallac).
# The quantity of protein used in the above determination corresponds to the values known from the literature, as for example described in “Protein measurement with the folin phenol reagent”, Lowry et al., J. Biol. Chem., 193, 265-275, 1951.
# A detailed description of the method may additionally be found in the literature, for example in M. Ch. Frink, H.-H. Hennies, W. Engelberger, M. Haurand and B. Wilffert (1996) Arzneim.-Forsch./Drug Res. 46 (III), 11, 1029-1036.
# human μ opioid receptor = target: T3, human μ opioid receptor (Homo sapiens, UniProt P35372); test: affinity for the human μ opioid receptor, displacement of [3H]-naloxone, CHO-K1 membrane preparation; settings: percentage inhibition of specific binding of [3H]-naloxone
# T3 construct: purchased NEN, Zaventem, Belgium RB-HOM; host or cells: CHO-K1 cells (recombinant expression, membrane preparation)
# Procedure: Receptor affinity for the human p opioid receptor is determined in a homogeneous batch in microtitre plates. To this end, dilution series of the particular substituted 1-oxa-3,8-diazaspiro[4.5]-decan-2-one compounds to be tested were incubated at room temperature for 90 minutes in a total volume of 250 μl with a receptor membrane preparation (15-40 μg of protein per 250 μl of incubation batch) of CHO-K1 cells, which express the human p opioid receptor (RB-HOM receptor membrane preparation from NEN, Zaventem, Belgium) in the presence of 1 nmol/l of the radioactive ligand [^3H]-naloxone (NET719, from NEN, Zaventem, Belgium) and of 1 mg of WGA-SPA beads (wheat germ agglutinin SPA beads from Amersham/Pharmacia, Freiburg, Germany). The incubation buffer used is 50 mmol/l tris-HCl supplemented with 0.05 wt. % of sodium azide and 0.06 wt. % of bovine serum albumin. Nonspecific binding is determined by additionally adding 25 μmol/l of naloxone. Once the ninety minute incubation time had elapsed, the microtitre plates were centrifuged off for 20 minutes at 1000 g and the radioactivity measured in a β counter (Microbeta-Trilux, from PerkinElmer Wallac, Freiburg, Germany). The percentage displacement of the radioactive ligand from its binding to the human p opioid receptor is determined at a concentration of the substances to be tested of 1 μmol/l and stated as percentage inhibition of specific binding.
# T2 sequence (Q63380 1-617): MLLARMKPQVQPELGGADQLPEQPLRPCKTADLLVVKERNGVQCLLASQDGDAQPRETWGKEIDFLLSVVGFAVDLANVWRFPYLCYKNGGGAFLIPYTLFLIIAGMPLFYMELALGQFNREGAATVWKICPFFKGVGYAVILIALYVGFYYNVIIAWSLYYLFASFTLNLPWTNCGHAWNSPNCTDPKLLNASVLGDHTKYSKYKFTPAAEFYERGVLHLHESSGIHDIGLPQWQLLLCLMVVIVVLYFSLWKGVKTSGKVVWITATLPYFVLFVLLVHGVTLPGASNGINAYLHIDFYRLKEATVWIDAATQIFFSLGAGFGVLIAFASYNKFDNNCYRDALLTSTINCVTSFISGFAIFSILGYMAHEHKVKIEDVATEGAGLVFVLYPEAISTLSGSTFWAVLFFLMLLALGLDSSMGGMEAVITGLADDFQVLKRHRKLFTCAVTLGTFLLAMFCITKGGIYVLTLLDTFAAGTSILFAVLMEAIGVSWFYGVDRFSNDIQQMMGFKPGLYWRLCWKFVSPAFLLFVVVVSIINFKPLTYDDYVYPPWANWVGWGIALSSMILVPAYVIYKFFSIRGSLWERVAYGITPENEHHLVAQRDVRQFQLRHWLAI
# T1 sequence (P31652 whole entry): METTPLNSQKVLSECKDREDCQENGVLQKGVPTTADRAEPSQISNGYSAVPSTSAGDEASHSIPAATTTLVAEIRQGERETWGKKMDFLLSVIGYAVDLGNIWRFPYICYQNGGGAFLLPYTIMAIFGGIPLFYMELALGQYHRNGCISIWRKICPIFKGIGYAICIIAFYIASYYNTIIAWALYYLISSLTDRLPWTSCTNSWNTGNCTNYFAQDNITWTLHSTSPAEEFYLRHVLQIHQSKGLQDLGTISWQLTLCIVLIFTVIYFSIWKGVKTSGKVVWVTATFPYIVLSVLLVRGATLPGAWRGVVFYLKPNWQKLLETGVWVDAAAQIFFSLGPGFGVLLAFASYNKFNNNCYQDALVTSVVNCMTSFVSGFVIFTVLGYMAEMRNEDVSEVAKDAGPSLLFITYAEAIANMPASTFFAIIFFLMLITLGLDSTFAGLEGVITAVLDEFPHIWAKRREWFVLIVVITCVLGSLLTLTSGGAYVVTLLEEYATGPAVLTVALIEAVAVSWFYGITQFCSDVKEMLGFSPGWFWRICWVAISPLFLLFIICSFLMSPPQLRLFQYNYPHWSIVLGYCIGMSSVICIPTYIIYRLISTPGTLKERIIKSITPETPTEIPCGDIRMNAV
# T3 sequence (P35372 whole entry): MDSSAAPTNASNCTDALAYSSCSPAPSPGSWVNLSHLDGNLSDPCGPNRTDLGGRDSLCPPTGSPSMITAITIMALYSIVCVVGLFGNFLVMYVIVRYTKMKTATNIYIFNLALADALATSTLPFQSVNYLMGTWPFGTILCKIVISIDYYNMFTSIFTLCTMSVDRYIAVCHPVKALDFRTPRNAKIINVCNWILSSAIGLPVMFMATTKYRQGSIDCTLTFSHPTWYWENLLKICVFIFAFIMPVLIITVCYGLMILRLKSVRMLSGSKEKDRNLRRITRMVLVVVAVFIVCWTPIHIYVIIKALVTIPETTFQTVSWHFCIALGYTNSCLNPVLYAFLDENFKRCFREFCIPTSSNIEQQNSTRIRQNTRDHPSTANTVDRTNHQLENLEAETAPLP
SMILES,inhibition at 10 µM (5-HT transporter) [%],inhibition at 10 µM (NA transporter) [%],inhibition at 1 µM (human μ opioid receptor) [%]
"CCOC(=O)c1cccc(NC(=O)N2CCC3(CC2)CN(Cc2ccc(C)cc2)C(=O)O3)c1 [Example 53, 3-{[3-(4-methylbenzyl)-2-oxo-1-oxa-3,8-diazaspiro[4.5]decane-8-carbonyl]amino}benzoic acid ethyl ester]",68,81,
"O=C(NCCc1ccccc1)N1CCC2(CC1)CN(Cc1ccccc1-c1ccccc1)C(=O)O2 [Example 57, 3-biphenyl-2-ylmethyl-2-oxo-1-oxa-3,8-diazaspiro[4.5]decane-8-carboxylic acid phenethylamide]",50,55,
"CCOC(=O)c1cccc(NC(=O)N2CCC3(CC2)CN(Cc2cccc(C#N)c2)C(=O)O3)c1 [Example 61, 3-{[3-(3-cyanobenzyl)-2-oxo-1-oxa-3,8-diazaspiro[4.5]decane-8-carbonyl]amino}benzoic acid ethyl ester]",69,77,
"COc1cccc(NC(=O)N2CCC3(CC2)CN(Cc2ccccc2-c2ccccc2)C(=O)O3)c1 [Example 62, 3-biphenyl-2-ylmethyl-2-oxo-1-oxa-3,8-diazaspiro[4.5]decane-8-carboxylic acid (3-methoxyphenyl)amide]",57,67,
"COc1ccc([N+](=O)[O-])cc1CN1CC2(CCN(C(=O)NC(C)c3cccc4ccccc34)CC2)OC1=O (centres unmarked) [Example 63, 3-(2-methoxy-5-nitrobenzyl)-2-oxo-1-oxa-3,8-diazaspiro[4.5]decane-8-carboxylic acid (1-naphthalen-1-yl-ethyl)amide]",84,41,
"O=C(O)COCC(=O)N1CCC2(CC1)CN(Cc1ccc(F)c(F)c1)C(=O)O2 [Example 64, {2-[3-(3,4-difluorobenzyl)-2-oxo-1-oxa-3,8-diazaspiro[4.5]dec-8-yl]-2-oxoethoxy}acetic acid]",,,48
"CC(CC(=O)O)CC(=O)N1CCC2(CC1)CN(Cc1ccccc1F)C(=O)O2 (centres unmarked) [Example 67, 5-[3-(2-fluorobenzyl)-2-oxo-1-oxa-3,8-diazaspiro[4.5]dec-8-yl]-3-methyl-5-oxopentanoic acid]",,,41
"Cc1ccc(CN2CC3(CCN(C(=O)CC(C)(C)CC(=O)O)CC3)OC2=O)cc1 [Example 68, 3,3-dimethyl-5-[3-(4-methylbenzyl)-2-oxo-1-oxa-3,8-diazaspiro[4.5]dec-8-yl]-5-oxopentanoic acid]",,,46
"CC(CC(=O)O)CC(=O)N1CCC2(CC1)CN(Cc1ccc(F)c(F)c1)C(=O)O2 (centres unmarked) [Example 69, 5-[3-(3,4-difluorobenzyl)-2-oxo-1-oxa-3,8-diazaspiro[4.5]dec-8-yl]-3-methyl-5-oxopentanoic acid]",,,50
"O=C(O)COCC(=O)N1CCC2(CC1)CN(Cc1ccc(C(F)(F)F)cc1)C(=O)O2 [Example 70, {2-oxo-2-[2-oxo-3-(4-trifluoromethylbenzyl)-1-oxa-3,8-diazaspiro[4.5]dec-8-yl]ethoxy}acetic acid]",,,42
"O=C1OC2(CCN(Cc3ccc([N+](=O)[O-])cc3)CC2)CN1Cc1ccc(F)c(F)c1 [Example 74, 3-(3,4-difluorobenzyl)-8-(4-nitrobenzyl)-1-oxa-3,8-diazaspiro[4.5]decan-2-one]",66,57,
"COc1ccc(-c2noc(CN3CCC4(CC3)CN(Cc3ccc(F)c(F)c3)C(=O)O4)n2)cc1 [Example 77, 3-(3,4-difluorobenzyl)-8-[3-(4-methoxyphenyl)-[1,2,4]oxadiazol-5-ylmethyl]-1-oxa-3,8-diazaspiro[4.5]decan-2-one]",50,64,
"O=C1OC2(CCN(Cc3ccc(OC(F)(F)F)cc3)CC2)CN1Cc1ccccc1 [Example 78, 3-benzyl-8-(4-trifluoromethoxybenzyl)-1-oxa-3,8-diazaspiro[4.5]decan-2-one]",51,53,
"COc1cccc(CN2CC3(CCN(Cc4ccc(Cl)cc4)CC3)OC2=O)c1 [Example 79, 8-(4-chlorobenzyl)-3-(3-methoxybenzyl)-1-oxa-3,8-diazaspiro[4.5]decan-2-one]",67,57,
"Cc1csc(NC(=O)CN2CCC3(CC2)CN(Cc2ccc(F)c(F)c2)C(=O)O3)c1C#N [Example 80, N-(3-cyano-4-methylthiophen-2-yl)-2-[3-(3,4-difluorobenzyl)-2-oxo-1-oxa-3,8-diazaspiro[4.5]dec-8-yl]acetamide]",47,45,
"O=C(CN1CCC2(CC1)CN(Cc1ccccc1F)C(=O)O2)Nc1nc(-c2ccccc2)cs1 [Example 86, 2-[3-(2-fluorobenzyl)-2-oxo-1-oxa-3,8-diazaspiro[4.5]dec-8-yl]-N-(4-phenylthiazol-2-yl)acetamide]",56,79,
"O=C(CN1CCC2(CC1)CN(Cc1ccccc1C(F)(F)F)C(=O)O2)Nc1ccc(OC(F)(F)F)cc1 [Example 87, 2-[2-oxo-3-(2-trifluoromethylbenzyl)-1-oxa-3,8-diazaspiro[4.5]dec-8-yl]-N-(4-trifluoromethoxyphenyl)acetamide]",72,59,
"N#Cc1ccc(CN2CC3(CCN(Cc4cccc([N+](=O)[O-])c4)CC3)OC2=O)cc1 [Example 89, 4-[8-(3-nitrobenzyl)-2-oxo-1-oxa-3,8-diazaspiro[4.5]dec-3-ylmethyl]benzonitrile]",63,57,
"COC(=O)CC(=O)N1CCC2(CC1)CN(Cc1ccc(C#N)cc1)C(=O)O2 [Example 93, 3-[3-(4-cyanobenzyl)-2-oxo-1-oxa-3,8-diazaspiro[4.5]dec-8-yl]-3-oxopropionic acid methyl ester]",,,65
"N#Cc1ccccc1CN1CC2(CCN(C(=O)c3ccc(F)cc3F)CC2)OC1=O [Example 94, 2-[8-(2,4-difluorobenzoyl)-2-oxo-1-oxa-3,8-diazaspiro[4.5]dec-3-ylmethyl]benzonitrile]",,,62
"O=C1OC2(CCN(C(=O)c3ccc(-c4ccccc4)cc3)CC2)CN1Cc1cccc(Br)c1 [Example 104, 8-(biphenyl-4-carbonyl)-3-(3-bromobenzyl)-1-oxa-3,8-diazaspiro[4.5]decan-2-one]",89,73,
"O=C1OC2(CCN(C(=O)c3ccc([N+](=O)[O-])cc3)CC2)CN1Cc1cccc(Br)c1 [Example 109, 3-(3-bromobenzyl)-8-(4-nitrobenzoyl)-1-oxa-3,8-diazaspiro[4.5]decan-2-one]",81,78,
"COc1cc(OC)cc(C(=O)N2CCC3(CC2)CN(Cc2cccc(Br)c2)C(=O)O3)c1 [Example 137, 3-(3-bromobenzyl)-8-(3,5-dimethoxybenzoyl)-1-oxa-3,8-diazaspiro[4.5]decan-2-one]",74,84,
"CCCc1ccc(C(=O)N2CCC3(CC2)CN(Cc2cccc(Br)c2)C(=O)O3)cc1 [Example 148, 3-(3-bromobenzyl)-8-(4-propylbenzoyl)-1-oxa-3,8-diazaspiro[4.5]decan-2-one]",73,75,
